Experimental findings from patent US9120777B2, “Heterocyclic compound” (Takeda Pharmaceutical Company Limited, priority 2013, dated 2015) are described below.

Experiment [1] addresses T1, human SSTR5 (Homo sapiens, UniProt P35346).
T1 construct: expressed in transfected cells
Description: Evaluation of human SSTR5 antagonist activity using intracellular cAMP concentration as index. In kind it is cell-based. As to conditions: 1 uM test compound; CHO (dhfr-) cells stably expressing human SSTR5; 0.1 nM somatostatin 28 and 0.3 uM forskolin; HTRF cAMP; read-out: Inhibition rate against SSTR5 at 1 uM. How it is done: Evaluation of Human SSTR5 Antagonist Activity Using Intracellular cAMP Concentration as Index
The intracellular cAMP concentration was measured using HTRF cAMP dynamic 2 kit (Cisbio Bioassays). Each test compound diluted with an assay buffer (HBSS (Invitrogen Corp.) containing 5 mM HEPES (pH 7.5) (Invitrogen Corp.), 0.1% fatty-acid free BSA (Sigma-Aldrich Corp.), and 500 u (“u” represents “micro”)M IBMX (Wako Pure Chemical Industries, Ltd.)) was added at a concentration of 2 uL/well to a 384-well white plate (Greiner Bio-One Co., Ltd.) to give the final concentration of 1 uM. A frozen stock of CHO (dhfr−) cells stably expressing the human SSTR5 gene (Accession No. NM_001053) was thawed in a thermostat bath of 37 C and suspended in a subculture medium (MEM alpha (Wako Pure Chemical Industries, Ltd.), 10% dialyzed serum (Gemini Bio-Products), and 50 ug/mL gentamicin (Invitrogen Corp.). After centrifugation of the cell suspension, the cells were resuspended in an assay buffer and added at a concentration of 2 uL/well (about 4,000 cells/well) to the plate. The compound and the cells were incubated for 15 minutes, and then, an assay buffer containing 0.1 nM (final concentration) somatostatin 28 (Toray Research Center) and 0.3 uM (final concentration) forskolin (Wako Pure Chemical Industries, Ltd.) was added thereto at a concentration of 2 uL/well, followed by incubation at room temperature for 30 minutes. cAMP-d2 and anti-cAMP-cryptate were each added thereto at a concentration of 3 uL/well. The plate was left standing at room temperature for 60 minutes. Then, the fluorescence resonance energy transfer (FRET) intensity was measured using Multi-label reader Envision (PerkinElmer). The FRET intensity of the wells supplemented with the test compound group was converted to a cAMP concentration using a calibration curve prepared from the FRET intensity of a well group containing an assay buffer supplemented with an arbitrary concentration of cAMP. The inhibitory activity of each compound was calculated according to the following expression: Inhibitory activity(%)=(C−B)/(A−B)×100 A: cAMP concentration calculated from the wells supplemented with 0.3 uM forskolin B: cAMP concentration calculated from the wells supplemented with 0.3 uM forskolin and 0.1 nM somatostatin 28 C: cAMP concentration calculated from the wells supplemented with 0.3 uM forskolin, 0.1 nM somatostatin 28, and 1 uM test compound

Experiment [2] has as its system Female KK-Ay/Ta mice, a type 2 diabetes model. The experiment can be described thus: Antidiabetic effect in mice (glycated hemoglobin after 2 weeks of treatment). Type of experiment: in vivo. The settings on record: 1 mg/kg orally once a day for 2 weeks, n=8. The text has this: Antidiabetic Effect in Mice
Female KK-Ay/Ta mice (Clea Japan Inc.), a type 2 diabetes model, were used in this study. At the age of 7-week old, blood sample were collected from tail vein at 8:00 am, and animals were divided into separate groups (n=8) based on glycated hemoglobin (GHb), plasma glucose, insulin, triglyceride levels and body weight. Vehicle (0.5% (w/v) methylcellulose) or compounds (suspended in vehicle) were orally administered once a day for 2 weeks. After 2 weeks of treatment, GHb was determined by auto-analyzer HLC-723G8 (TOSOH, Japan).

T1 sequence (P35346 whole entry): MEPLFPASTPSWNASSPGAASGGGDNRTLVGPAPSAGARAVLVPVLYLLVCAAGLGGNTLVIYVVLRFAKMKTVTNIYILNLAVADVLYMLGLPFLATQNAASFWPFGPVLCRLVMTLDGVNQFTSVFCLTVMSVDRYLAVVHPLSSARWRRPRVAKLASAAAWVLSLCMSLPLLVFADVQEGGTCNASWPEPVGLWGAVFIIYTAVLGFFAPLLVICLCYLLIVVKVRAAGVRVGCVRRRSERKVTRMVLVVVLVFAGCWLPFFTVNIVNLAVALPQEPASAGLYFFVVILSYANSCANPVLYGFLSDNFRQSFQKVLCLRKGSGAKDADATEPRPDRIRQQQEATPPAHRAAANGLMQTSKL

On to `CCOc1cc(C2CCC2)c(C2CC2)cc1CN1CCC(n2ccc(C(=O)O)cc2=O)CC1` [Example 1, 1-(1-(4-cyclobutyl-5-cyclopropyl-2-ethoxybenzyl)piperidin-4-yl)-2-oxo-1,2-dihydropyridine-4-carboxylic acid], for which the inhibition at 1 µM in experiment [1] came out at 84%.

Take `CC(C)Oc1nc(-c2ccc(F)cc2)c(C2CC2)cc1CN1CCC(n2ccc(C(=O)O)cc2=O)CC1` [Example 2, 1-(1-((5-cyclopropyl-6-(4-fluorophenyl)-2-isopropoxypyridin-3-yl)methyl)piperidin-4-yl)-2-oxo-1,2-dihydropyridine-4-carboxylic acid]: the inhibition at 1 µM in experiment [1] was found to be 134%.

Turning to `CC(C)Oc1cc(-c2ccc(F)cc2)c(C2CC2)cc1CN1CCC(n2ccc(C(=O)O)cc2=O)CC1` [Example 3, 1-(1-((2-cyclopropyl-4′-fluoro-5-isopropoxybiphenyl-4-yl)methyl)piperidin-4-yl)-2-oxo-1,2-dihydropyridine-4-carboxylic acid], in experiment [1], the inhibition at 1 µM was determined as 116%.

As for `CC(C)Oc1cc(C2CC2)c(C2CC2)cc1CN1CCC(n2ccc(C(=O)O)cc2=O)CC1` [Example 4, 1-(1-(4,5-dicyclopropyl-2-isopropoxybenzyl)piperidin-4-yl)-2-oxo-1,2-dihydropyridine-4-carboxylic acid], in experiment [1], the inhibition at 1 µM stood at 120%.

For `CC(C)Oc1c(CN2CCC(n3ccc(C(=O)O)cc3=O)CC2)cc(C2CC2)c(-c2ccc(F)cc2F)c1Cl` [Example 5, 1-(1-((2-chloro-6-cyclopropyl-2′,4′-difluoro-3-isopropoxybiphenyl-4-yl)methyl)piperidin-4-yl)-2-oxo-1,2-dihydropyridine-4-carboxylic acid], in experiment [1], the inhibition at 1 µM was determined as 88%.

Take `CCc1c(C(=O)O)ccn(C2CCN(Cc3cc(C4CC4)c(-c4ccc(F)cc4F)cc3OC(C)C)CC2)c1=O` [Example 6, 1-(1-((2-cyclopropyl-2′,4′-difluoro-5-isopropoxybiphenyl-4-yl)methyl)piperidin-4-yl)-3-ethyl-2-oxo-1,2-dihydropyridine-4-carboxylic acid]: in experiment [1], the inhibition at 1 µM came to 94%.

With `CCc1c(C(=O)O)ccn(C2CCN(Cc3cc(C4CC4)c(-c4ccc(F)cc4F)c(F)c3OC(C)C)CC2)c1=O` [Example 7, 1-(1-((6-cyclopropyl-2,2′,4′-trifluoro-3-isopropoxybiphenyl-4-yl)methyl)piperidin-4-yl)-3-ethyl-2-oxo-1,2-dihydropyridine-4-carboxylic acid], in experiment [1], the inhibition at 1 µM came to 124%.

For `CCc1c(C(=O)O)ccn(C2CCN(Cc3cc(C4CC4)c(-c4ccc(F)cc4)c(F)c3OC(C)C)CC2)c1=O` [Example 43, 1-(1-((6-cyclopropyl-2,4′-difluoro-3-isopropoxybiphenyl-4-yl)methyl)piperidin-4-yl)-3-ethyl-2-oxo-1,2-dihydropyridine-4-carboxylic acid], in experiment [1], the inhibition at 1 µM is 133%.

Consider `CCOc1c(CN2CCC(n3ccc(C(=O)O)c(CC)c3=O)CC2)cc(C2CC2)c(-c2ccc(F)cc2F)c1F` [Example 45, 1-(1-((6-cyclopropyl-3-ethoxy-2,2′,4′-trifluorobiphenyl-4-yl)methyl)piperidin-4-yl)-3-ethyl-2-oxo-1,2-dihydropyridine-4-carboxylic acid], for which the inhibition at 1 µM in experiment [1] amounted to 98%.

On to `CCc1c(C(=O)O)ccn(C2CCN(Cc3cc(C4CC4)c(C4CC4)c(F)c3OC(C)C)CC2)c1=O` [Example 47, 1-(1-(4,5-dicyclopropyl-3-fluoro-2-isopropoxybenzyl)piperidin-4-yl)-3-ethyl-2-oxo-1,2-dihydropyridine-4-carboxylic acid], for which, in experiment [1], the inhibition at 1 µM was determined as 111%.

`Cc1c(C(=O)O)ccn(C2CCN(Cc3cc(C4CC4)c(-c4ccc(F)cc4)c(F)c3OC(C)C)CC2)c1=O` [Example 49, 1-(1-((6-Cyclopropyl-2,4′-difluoro-3-isopropoxybiphenyl-4-yl)methyl)piperidin-4-yl)-3-methyl-2-oxo-1,2-dihydropyridine-4-carboxylic acid]: the “average of delta GHb (%)” value in experiment [2] is recorded as −0.51%.

As to `CCc1c(C(=O)O)ccn(C2CCN(Cc3cc(C4CC4)c(-c4ccc(F)cc4)cc3OC(C)C)CC2)c1=O` [Example 51, 1-(1-((2-cyclopropyl-4′-fluoro-5-isopropoxybiphenyl-4-yl)methyl)piperidin-4-yl)-3-ethyl-2-oxo-1,2-dihydropyridine-4-carboxylic acid], the inhibition at 1 µM in experiment [1] is 89%.

As usually defined, the inhibition is the relative decrease from the control value, in per cent.
